PubChem BioAssay (NCI)
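Compound exposure: 48 hours, 5 concentrations, 96-well plates. Here, GI50 denotes the concentration required for 50% inhibition of growth. TGI denotes the concentration required for complete inhibition of growth.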

Assays:
Experiment in all cases: DTP human tumour cell line panel, 48 h
A498 renal = test system: A498 renal
HT29 colon = test system: HT29 colon
MALME-3M melanoma = test system: MALME-3M melanoma
RPMI-8226 leukemia = test system: RPMI-8226 leukemia
RXF 393 renal = test system: RXF 393 renal
SF-295 CNS = test system: SF-295 CNS
SNB-19 CNS = test system: SNB-19 CNS
U251 CNS = test system: U251 CNS
UO-31 renal = test system: UO-31 renal

| Compound | TGI (A498 renal) [µM] | TGI (HT29 colon) [µM] | TGI (MALME-3M melanoma) [µM] | TGI (RPMI-8226 leukemia) [µM] | TGI (RXF 393 renal) [µM] | TGI (SF-295 CNS) [µM] | TGI (SNB-19 CNS) [µM] | TGI (U251 CNS) [µM] | TGI (UO-31 renal) [µM] | GI50 (A498 renal) [µM] | GI50 (HT29 colon) [µM] | GI50 (MALME-3M melanoma) [µM] | GI50 (RPMI-8226 leukemia) [µM] | GI50 (RXF 393 renal) [µM] | GI50 (SF-295 CNS) [µM] | GI50 (SNB-19 CNS) [µM] | GI50 (U251 CNS) [µM] | GI50 (UO-31 renal) [µM] |
| --- | --- | --- | --- | --- | --- | --- | --- | --- | --- | --- | --- | --- | --- | --- | --- | --- | --- | --- |
| CC1=C2C(O)C(C(C)CO)C(O)CC2(C)C(O)CC1 (stereo unspecified) | > 100 | > 100 | > 100 | > 100 | > 100 | > 100 | > 100 | > 100 | > 100 | – | – | – | – | – | – | – | – | – |
| Cc1cc2nc3c(=O)n(C)c(=O)nc-3n(-c3ccc(Cl)cc3)c2cc1C | 89.8 | 16.1 | 22.3 | 26.4 | – | 26.1 | 47 | 29.9 | 52.6 | – | – | – | – | – | – | – | – | – |
| O=C1C=C(c2c(O)ccc3ccccc23)c2ccccc2C1=O | 13.4 | 27.2 | 26.7 | 15.7 | 5.06 | 12.4 | 22.4 | 5.13 | 6.52 | – | – | – | – | – | – | – | – | – |
| CC(C)=CC(C(O)c1ccccc1)S(=O)(=O)c1nccn1C (stereo unspecified) | – | > 100 | > 100 | > 100 | > 100 | > 100 | > 100 | > 100 | > 100 | – | – | – | – | – | – | – | – | – |
| C=CCCCCCCCCCCCC1CCC(CC)N1 (stereo unspecified) | 38.4 | 14 | 31.4 | 31.9 | 16.5 | 27.8 | 36.3 | 25.5 | 23.8 | – | – | – | – | – | – | – | – | – |
| CC(=O)O/N=C/c1ncccc1CO | > 100 | > 100 | > 100 | – | > 100 | > 100 | > 100 | > 100 | > 100 | – | – | – | – | – | – | – | – | – |
| CC(=O)O[C@H]1C(N(C)C(=O)c2ccccc2)CC[C@]2(C)C3CC[C@@]4(C)C(CC(O)[C@@H]4C(C)N(C)C)[C@@H]3CCC12 (stereo partly specified) | > 100 | > 100 | > 100 | > 100 | – | > 100 | > 100 | > 100 | – | – | – | – | – | – | – | – | – | – |
| CCN(CC)c1ccc(N=Nc2ccc(-c3nc4cccnc4o3)cc2)cc1 | > 100 | > 100 | > 100 | > 100 | > 100 | > 100 | > 100 | > 100 | > 100 | – | – | – | – | – | – | – | – | – |
| CCCC(=O)c1c(NOC2OC(COC(C)=O)C(OC(C)=O)C(OC(C)=O)C2OC(C)=O)nc(OC)n(C)c1=O (stereo unspecified) | – | > 100 | – | – | > 100 | > 100 | > 100 | > 100 | 89 | – | – | – | – | – | – | – | – | – |
| Cc1nc2ccc(C(F)(F)F)cc2nc1Nc1ccc(Cl)c(Cl)c1 | – | 18.6 | 35.7 | 88.1 | 19.1 | 11.8 | 27.1 | 19.4 | 24.6 | – | – | – | – | – | – | – | – | – |
| N#CC(C#N)=C(N)/C(C#N)=C\c1ccnc2ccccc12 | – | 57.7 | 87 | – | 35.3 | 80.4 | > 100 | 43.1 | 40.9 | – | – | – | – | – | – | – | – | – |
| O=C1C(Br)=C[C@H]2C3C=CC(Br)(C3=O)[C@@H]12 (stereo partly specified) | 37.9 | 23.8 | 26.2 | > 100 | 27.3 | 51 | 32.6 | 27.3 | 31.1 | – | – | – | – | – | – | – | – | – |
| CC1(C)C(=O)N(c2ccccc2)C(=O)N1c1nc2ccccc2[nH]1 | > 100 | > 100 | > 100 | > 100 | > 100 | > 100 | > 100 | – | > 100 | – | – | – | – | – | – | – | – | – |
| N#CCCc1nc2ccc(Br)cc2c(=O)n1CCO | – | – | > 100 | > 100 | > 100 | > 100 | – | – | > 100 | – | – | – | – | – | – | – | – | – |
| C=CCc1cc2cccc(OC)c2oc1=O | > 100 | > 100 | > 100 | > 100 | – | > 100 | > 100 | > 100 | 69.2 | – | – | – | – | – | – | – | – | – |
| CCC(=O)c1cn(C)c(=O)c2ccccc12 | – | > 100 | > 100 | > 100 | > 100 | > 100 | > 100 | > 100 | > 100 | – | – | – | – | – | – | – | – | – |
| CCN(CC)CCC1CC/C(=C\c2ccc(OC)cc2)C1=O (stereo unspecified) | > 100 | > 100 | > 100 | > 100 | > 100 | > 100 | > 100 | > 100 | > 100 | – | – | – | – | – | – | – | – | – |
| O=C(Nc1ccccc1)c1ccc(Cl)c([N+](=O)[O-])c1 | 63.9 | 70.1 | 42.4 | 37.6 | 75.5 | > 100 | 97.4 | > 100 | > 100 | – | – | – | – | – | – | – | – | – |

| Compound | TGI (A498 renal) [µM] | TGI (HT29 colon) [µM] | TGI (MALME-3M melanoma) [µM] | TGI (RPMI-8226 leukemia) [µM] | TGI (RXF 393 renal) [µM] | TGI (SF-295 CNS) [µM] | TGI (SNB-19 CNS) [µM] | TGI (U251 CNS) [µM] | TGI (UO-31 renal) [µM] | GI50 (A498 renal) [µM] | GI50 (HT29 colon) [µM] | GI50 (MALME-3M melanoma) [µM] | GI50 (RPMI-8226 leukemia) [µM] | GI50 (RXF 393 renal) [µM] | GI50 (SF-295 CNS) [µM] | GI50 (SNB-19 CNS) [µM] | GI50 (U251 CNS) [µM] | GI50 (UO-31 renal) [µM] |
| --- | --- | --- | --- | --- | --- | --- | --- | --- | --- | --- | --- | --- | --- | --- | --- | --- | --- | --- |
| COc1ccc(NC(=O)C2C(=O)N(c3ccc(OC)cc3)C(=O)/C2=N/O)cc1 (stereo unspecified) | 59.3 | > 100 | 42.9 | > 100 | 30.5 | 52.5 | > 70.5 | 42.9 | 47 | – | – | – | – | – | – | – | – | – |
| COc1ccc(-c2c(C3=NCCN3)nnn2-c2ccccc2)cc1 | > 100 | > 100 | > 100 | > 100 | > 100 | > 100 | > 100 | > 100 | > 100 | – | – | – | – | – | – | – | – | – |
| CN1CCN(CCSC2Cc3cc(Cl)ccc3Sc3ccccc32)CC1 (stereo unspecified) | 24.7 | 3.45 | 5.8 | 5.34 | 15.3 | 15.6 | 33.9 | 19.1 | 21.6 | – | – | – | – | – | – | – | – | – |
| C[CH2][Sn]1([CH2]C)[O]C(=O)[O][Sn]([CH2]C)([CH2]C)[O]1 | 32.1 | > 62.2 | 29.9 | 47.6 | 30.3 | 34.7 | 33.6 | 29.8 | > 100 | 17.7 | 25.6 | 16 | 17.2 | 15.5 | 19.4 | 18.4 | 14.8 | 45.8 |
| CC(=O)NC(CCCCNC(=O)OCc1ccccc1)C(=O)NCc1ccccc1 (stereo unspecified) | > 100 | > 100 | > 100 | > 100 | > 100 | > 100 | > 100 | > 100 | > 100 | – | – | – | – | – | – | – | – | – |
| COc1cc(-c2cc(=O)c3cc4c(cc3[nH]2)OCO4)cc(OC)c1OC | – | > 100 | > 100 | > 100 | 60.5 | 97.9 | > 100 | > 100 | > 100 | – | – | – | – | 22.1 | 32 | – | – | – |
| Cc1nc(N)sc1C(=O)/C=C/c1ccc(/C=C/C(=O)c2sc(NC(=O)CCCCCCCCC(=O)Nc3nc(C)c(C(=O)/C=C/c4ccc(/C=C/C(=O)c5sc(N)nc5C)cc4)s3)nc2C)cc1 | – | > 100 | > 100 | – | > 100 | > 100 | > 100 | > 100 | > 100 | – | – | – | – | – | – | – | – | – |
| CCN(CC)CCn1c2c3ccccc3ccc2c2oc(=O)c3ccccc3c21 | – | > 100 | > 100 | > 100 | – | > 100 | > 100 | > 100 | > 100 | – | – | – | – | – | – | – | – | – |
| CCOC(=O)CCC(=O)C1c2cccc(O)c2C(=O)c2c(O)cccc21 | – | 6.24 | 3.42 | – | 2.08 | 1.95 | 3.7 | 1.53 | 1.48 | – | – | – | – | – | – | – | – | – |
| O=[N+]([O-])c1c(/C=N/Nc2ccccc2)oc(-c2ccc3c(c2)OCO3)c1-c1ccc2c(c1)OCO2 | – | > 100 | > 100 | 24.2 | > 100 | > 100 | > 100 | – | – | – | – | – | – | – | – | – | – | – |
| CC1CC(c2ccccc2)=Nc2ccccc2S1(=O)=O (stereo unspecified) | 28.2 | – | 37.1 | 5.59 | 28.7 | 39.4 | 28.4 | 31.9 | 29 | – | – | – | – | – | – | – | – | – |
| CC(=O)N/C(=C\c1ccc(/C=C(\NC(C)=O)c2nc3ccc(Cl)cc3[nH]2)cc1)c1nc2ccccc2[nH]1 | > 100 | > 100 | > 100 | > 100 | – | – | > 100 | > 100 | – | – | – | – | – | – | – | – | – | – |
| COC1=CC23C=CC1[C@@H](c1ccccc1)C2=C(C)C(=O)N3C(=O)NC1CCCCC1 (stereo partly specified) | 64.1 | 41.1 | – | – | 14.8 | 53.7 | > 100 | 35.4 | 54.7 | – | – | – | – | – | – | – | – | – |
| COP1(=O)CC2C(Cl)(Cl)C2(C)C1 (stereo unspecified) | – | > 100 | – | > 100 | > 100 | > 100 | > 100 | > 100 | – | – | – | – | – | – | – | – | – | – |
| CCCCC#COP(=O)(OCC)OCC | > 100 | > 100 | > 100 | > 100 | – | > 100 | > 100 | > 100 | > 100 | – | – | – | – | – | – | – | – | – |
| Nc1ccc(C(=O)N/C(=C\C=C\c2ccco2)c2nc3[nH]c(=S)[nH]c(=O)c3[nH]2)cc1 | – | > 100 | > 100 | – | > 100 | > 100 | > 100 | > 100 | > 100 | – | – | – | – | – | – | – | – | – |
| CCN(CC)CCCCC1CCN(CC(=O)N2CC(C)C(=O)Nc3ccccc32)CC1 (stereo unspecified) | > 100 | > 100 | > 100 | > 100 | – | > 100 | > 100 | > 100 | > 100 | – | – | – | – | – | – | – | – | – |
| c1cnc2c(c1)-n1cccc1C1(CCSCC1)NN2 | – | > 100 | > 100 | > 100 | – | > 100 | > 100 | – | 94.1 | – | – | – | – | – | – | – | – | – |
